One experiment addresses T1, VIP receptor 2 (VPAC2) (Homo sapiens, UniProt P41587).
T1 sequence (P41587 24-438): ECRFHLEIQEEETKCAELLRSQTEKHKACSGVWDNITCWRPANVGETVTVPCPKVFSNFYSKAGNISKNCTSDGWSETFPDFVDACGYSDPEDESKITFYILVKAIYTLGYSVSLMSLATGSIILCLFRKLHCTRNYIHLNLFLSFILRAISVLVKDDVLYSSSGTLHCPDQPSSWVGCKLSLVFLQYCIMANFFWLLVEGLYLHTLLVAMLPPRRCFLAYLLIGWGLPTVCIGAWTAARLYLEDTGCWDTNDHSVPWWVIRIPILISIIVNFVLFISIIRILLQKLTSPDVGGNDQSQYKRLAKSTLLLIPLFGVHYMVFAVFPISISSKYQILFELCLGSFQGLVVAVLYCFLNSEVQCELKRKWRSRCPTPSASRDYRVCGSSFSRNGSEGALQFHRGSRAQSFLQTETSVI
Description: cAMP assay, COS-7 cells transiently expressing VPAC2. To be noted: for % receptor activation at 1µM agonist: VPAC2 + VIP, Suppl. fig 5a source data; for EC50: log(EC50) VPAC 2 + VIP, log10 of EC50, COS-7 cells, cAMP, Hill = 1, top constrained to 100%. The class given is cell-based.

Another experiment deals with T2, VIP receptor 1 (VPAC1) (Homo sapiens, UniProt P32241).
T2 sequence (P32241 31-457): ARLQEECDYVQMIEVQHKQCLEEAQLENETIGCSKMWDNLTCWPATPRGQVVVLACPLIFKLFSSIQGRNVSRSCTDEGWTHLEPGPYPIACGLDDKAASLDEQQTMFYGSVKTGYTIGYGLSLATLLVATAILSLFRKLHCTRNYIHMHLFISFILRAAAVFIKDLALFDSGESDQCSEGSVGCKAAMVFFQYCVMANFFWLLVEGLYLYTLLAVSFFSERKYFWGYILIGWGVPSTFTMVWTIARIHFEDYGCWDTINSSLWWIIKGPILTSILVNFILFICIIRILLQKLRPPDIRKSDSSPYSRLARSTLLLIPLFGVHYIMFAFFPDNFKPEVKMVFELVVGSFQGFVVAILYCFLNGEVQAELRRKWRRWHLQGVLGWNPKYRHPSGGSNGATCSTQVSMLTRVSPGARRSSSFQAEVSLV
In words: cAMP assay, COS-7 cells transiently expressing VPAC1. The class given is cell-based. The note with it: for EC50: log(EC50) VPAC1 + VIP, log10 of EC50, COS-7 cells, cAMP, Hill = 1, top constrained to 100%. (In general: Changes in cAMP serve as a functional read-out for many G protein-coupled receptors.)

Where [1] appears, read: independent experiment 1, duplicate determinations.
[2] abbreviates: independent experiment 2, duplicate determinations.
[3] abbreviates: independent experiment 3, duplicate determinations.

As usually defined, the EC50 is the concentration that produces a half-maximal response.

For `CC[C@H](C)[C@H](NC(=O)[C@H](CO)NC(=O)[C@H](CC(N)=O)NC(=O)[C@H](CC(C)C)NC(=O)[C@H](Cc1ccc(O)cc1)NC(=O)[C@H](CCCCN)NC(=O)[C@H](CCCCN)NC(=O)[C@@H](NC(=O)[C@H](C)NC(=O)[C@H](CCSC)NC(=O)[C@H](CCC(N)=O)NC(=O)[C@H](CCCCN)NC(=O)[C@H](CCCNC(=N)N)NC(=O)[C@H](CC(C)C)NC(=O)[C@H](CCCNC(=N)N)NC(=O)[C@@H](NC(=O)[C@H](Cc1ccc(O)cc1)NC(=O)[C@H](CC(N)=O)NC(=O)[C@H](CC(=O)O)NC(=O)[C@@H](NC(=O)[C@H](Cc1ccccc1)NC(=O)[C@@H](NC(=O)[C@H](C)NC(=O)[C@H](CC(=O)O)NC(=O)[C@H](CO)NC(=O)[C@@H](N)Cc1c[nH]cn1)C(C)C)[C@@H](C)O[C@H]1O[C@H](CO)[C@H](O)[C@H](O[C@@H]2O[C@H](CO)[C@H](O)[C@H](O[C@]3(C(=O)O)C[C@H](O)[C@@H](NC(C)=O)[C@H]([C@H](O)[C@H](O)CO)O3)[C@H]2O)[C@H]1NC(C)=O)[C@@H](C)O)C(C)C)C(=O)N[C@@H](CC(C)C)C(=O)N[C@@H](CC(N)=O)C(N)=O` [VIP ST], the “% receptor activation at 1µM agonist” value at VIP receptor 2 (VPAC2) (replicate 1) is given as 68.0%; on VIP receptor 2 (VPAC2) (replicate 2), 68.9%; on VIP receptor 2 (VPAC2) (replicate 3), 66.1%; at VIP receptor 2 (VPAC2) (replicate 4), 69.7%; at VIP receptor 2 (VPAC2) (replicate 5) it was 54.2%; on VIP receptor 2 (VPAC2) (replicate 6), 49.2%. Moreover, the EC50 is 0.378 µM at VIP receptor 2 (VPAC2) (setting [1]); 0.596 µM on VIP receptor 2 (VPAC2) (setting [2]); 0.946 µM at VIP receptor 2 (VPAC2) (setting [3]); 0.0341 µM at VIP receptor 1 (VPAC1) (setting [1]); 0.116 µM at VIP receptor 1 (VPAC1) (setting [2]); 0.162 µM at VIP receptor 1 (VPAC1) (setting [3]). In addition, the “Efficacy raw data for Glucagon-receptors, VPAC2 + VIP” value (“Efficacy raw data … VPAC2 + VIP” for short) stood at 72.87 at VIP receptor 2 (VPAC2) (replicate 1) and 74.68 on VIP receptor 2 (VPAC2) (replicate 3). Moreover, the “Efficacy raw data for Glucagon-receptors, VPAC1 + VIP” value on VIP receptor 1 (VPAC1) (replicate 1) is 91.02; on VIP receptor 1 (VPAC1) (replicate 2), 112.4; at VIP receptor 1 (VPAC1) (replicate 3), 93.56.

As to `CC[C@H](C)[C@H](NC(=O)[C@H](CO)NC(=O)[C@H](CC(N)=O)NC(=O)[C@H](CC(C)C)NC(=O)[C@H](Cc1ccc(O)cc1)NC(=O)[C@H](CCCCN)NC(=O)[C@H](CCCCN)NC(=O)[C@@H](NC(=O)[C@H](C)NC(=O)[C@H](CCSC)NC(=O)[C@H](CCC(N)=O)NC(=O)[C@H](CCCCN)NC(=O)[C@H](CCCNC(=N)N)NC(=O)[C@H](CC(C)C)NC(=O)[C@H](CCCNC(=N)N)NC(=O)[C@@H](NC(=O)[C@H](Cc1ccc(O)cc1)NC(=O)[C@H](CC(N)=O)NC(=O)[C@H](CC(=O)O)NC(=O)[C@@H](NC(=O)[C@H](Cc1ccccc1)NC(=O)[C@@H](NC(=O)[C@H](C)NC(=O)[C@H](CC(=O)O)NC(=O)[C@H](CO)NC(=O)[C@@H](N)Cc1c[nH]cn1)C(C)C)[C@@H](C)O[C@H]1O[C@H](CO)[C@H](O)[C@H](O[C@@H]2O[C@H](CO)[C@H](O)[C@H](O)[C@H]2O)[C@H]1NC(C)=O)[C@@H](C)O)C(C)C)C(=O)N[C@@H](CC(C)C)C(=O)N[C@@H](CC(N)=O)C(N)=O` [VIP T], the “% receptor activation at 1µM agonist” value at VIP receptor 2 (VPAC2) (replicate 1) was determined as 72.7%; at VIP receptor 2 (VPAC2) (replicate 2) it was 72.4%; on VIP receptor 2 (VPAC2) (replicate 3), 74.8%; at VIP receptor 2 (VPAC2) (replicate 4), 68.0%; at VIP receptor 2 (VPAC2) (replicate 5), 58.9%; at VIP receptor 2 (VPAC2) (replicate 6), 52.3%. Further, the “% receptor activation at 1µM agonist” value at VIP receptor 1 (VPAC1) (VPAC1 + VIP, 1µM agonist, Suppl. fig 5a source data, replicate 5) turned out to be 104.2%. Also, the EC50 on VIP receptor 2 (VPAC2) (setting [1]) is 0.202 µM; at VIP receptor 2 (VPAC2) (setting [2]) it was 0.422 µM; at VIP receptor 2 (VPAC2) (setting [3]), 0.718 µM; on VIP receptor 1 (VPAC1) (setting [1]), 0.0189 µM; at VIP receptor 1 (VPAC1) (setting [2]), 0.0887 µM; on VIP receptor 1 (VPAC1) (setting [3]), 0.0458 µM. Further, the “Efficacy raw data … VPAC2 + VIP” value at VIP receptor 2 (VPAC2) (replicate 1) is on record as 75.53; on VIP receptor 2 (VPAC2) (replicate 2) it was 106.2; at VIP receptor 2 (VPAC2) (replicate 3), 67.09. For the same molecule, the “Efficacy raw data for Glucagon-receptors, VPAC1 + VIP” value at VIP receptor 1 (VPAC1) (replicate 1) came to 95.97; at VIP receptor 1 (VPAC1) (replicate 2), 106.4; on VIP receptor 1 (VPAC1) (replicate 3) it was 107.3.

For `CC[C@H](C)[C@H](NC(=O)[C@H](CO)NC(=O)[C@H](CC(N)=O)NC(=O)[C@H](CC(C)C)NC(=O)[C@H](Cc1ccc(O)cc1)NC(=O)[C@H](CCCCN)NC(=O)[C@H](CCCCN)NC(=O)[C@@H](NC(=O)[C@H](C)NC(=O)[C@H](CCSC)NC(=O)[C@H](CCC(N)=O)NC(=O)[C@H](CCCCN)NC(=O)[C@H](CCCNC(=N)N)NC(=O)[C@H](CC(C)C)NC(=O)[C@H](CCCNC(=N)N)NC(=O)[C@@H](NC(=O)[C@H](Cc1ccc(O)cc1)NC(=O)[C@H](CC(N)=O)NC(=O)[C@H](CC(=O)O)NC(=O)[C@@H](NC(=O)[C@H](Cc1ccccc1)NC(=O)[C@@H](NC(=O)[C@H](C)NC(=O)[C@H](CC(=O)O)NC(=O)[C@H](CO)NC(=O)[C@@H](N)Cc1c[nH]cn1)C(C)C)[C@@H](C)O)[C@@H](C)O)C(C)C)C(=O)N[C@@H](CC(C)C)C(=O)N[C@@H](CC(N)=O)C(N)=O` [VIP non-glycosylated], the “% receptor activation at 1µM agonist” value on VIP receptor 2 (VPAC2) (replicate 1) is given as 79.5%; on VIP receptor 2 (VPAC2) (replicate 2), 82.6%; on VIP receptor 2 (VPAC2) (replicate 3), 101.8%; on VIP receptor 2 (VPAC2) (replicate 4), 110.5%; on VIP receptor 2 (VPAC2) (replicate 5), 97.7%; on VIP receptor 2 (VPAC2) (replicate 6), 107.3%.

Turning to `CC[C@H](C)[C@H](NC(=O)[C@H](CO)NC(=O)[C@H](CC(N)=O)NC(=O)[C@H](CC(C)C)NC(=O)[C@H](Cc1ccc(O)cc1)NC(=O)[C@H](CCCCN)NC(=O)[C@H](CCCCN)NC(=O)[C@@H](NC(=O)[C@H](C)NC(=O)[C@H](CCSC)NC(=O)[C@H](CCC(N)=O)NC(=O)[C@H](CCCCN)NC(=O)[C@H](CCCNC(=N)N)NC(=O)[C@H](CC(C)C)NC(=O)[C@H](CCCNC(=N)N)NC(=O)[C@@H](NC(=O)[C@H](Cc1ccc(O)cc1)NC(=O)[C@H](CC(N)=O)NC(=O)[C@H](CC(=O)O)NC(=O)[C@@H](NC(=O)[C@H](Cc1ccccc1)NC(=O)[C@@H](NC(=O)[C@H](C)NC(=O)[C@H](CC(=O)O)NC(=O)[C@H](CO)NC(=O)[C@@H](N)Cc1c[nH]cn1)C(C)C)[C@@H](C)O)[C@@H](C)O)C(C)C)C(=O)N[C@@H](CC(C)C)C(=O)N[C@@H](CC(N)=O)C(N)=O` [VIP, vasoactive intestinal polypeptide, reference compound], the “Efficacy raw data … VPAC2 + VIP” value on VIP receptor 2 (VPAC2) (replicate 1) amounted to 99.97; on VIP receptor 2 (VPAC2) (replicate 2), 100; at VIP receptor 2 (VPAC2) (replicate 3), 100.
